Reference: PubChem BioAssay (NCI)
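Test compounds were applied to cells in 96-well plates for 48 hours at 5 doses. TGI denotes the concentration required for complete inhibition of growth.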

What was measured:
Assay in all cases: growth of human tumour cells (NCI), 48 h
786-0 renal = test system: 786-0 renal
A498 renal = test system: A498 renal
A549 NSCLC = test system: A549 NSCLC
ACHN renal = test system: ACHN renal
CAKI-1 renal = test system: CAKI-1 renal
CCRF-CEM leukemia = test system: CCRF-CEM leukemia
COLO 205 colon = test system: COLO 205 colon
DLD-1 colon = test system: DLD-1 colon
DMS 114 small cell lung = test system: DMS 114 small cell lung
DMS 273 small cell lung = test system: DMS 273 small cell lung
EKVX NSCLC = test system: EKVX NSCLC
HCC-2998 colon = test system: HCC-2998 colon
HCT-116 colon = test system: HCT-116 colon
HCT-15 colon = test system: HCT-15 colon
HL-60(TB) leukemia = test system: HL-60(TB) leukemia
HOP-18 NSCLC = test system: HOP-18 NSCLC
HOP-92 NSCLC = test system: HOP-92 NSCLC
HT29 colon = test system: HT29 colon
IGROV1 ovarian = test system: IGROV1 ovarian
K-562 leukemia = test system: K-562 leukemia
KM12 colon = test system: KM12 colon
KM20L2 colon = test system: KM20L2 colon
LOX IMVI melanoma = test system: LOX IMVI melanoma
LXFL 529 NSCLC = test system: LXFL 529 NSCLC
M14 melanoma = test system: M14 melanoma
M19-MEL melanoma = test system: M19-MEL melanoma
MALME-3M melanoma = test system: MALME-3M melanoma
MOLT-4 leukemia = test system: MOLT-4 leukemia
NCI-H226 lung = test system: NCI-H226 lung
NCI-H23 lung = test system: NCI-H23 lung
NCI-H522 lung = test system: NCI-H522 lung
OVCAR-3 ovarian = test system: OVCAR-3 ovarian
OVCAR-4 ovarian = test system: OVCAR-4 ovarian
OVCAR-5 ovarian = test system: OVCAR-5 ovarian
OVCAR-8 ovarian = test system: OVCAR-8 ovarian
RPMI-8226 leukemia = test system: RPMI-8226 leukemia
RXF 393 renal = test system: RXF 393 renal
RXF-631 renal = test system: RXF-631 renal
SF-268 CNS = test system: SF-268 CNS
SF-295 CNS = test system: SF-295 CNS
SF-539 CNS = test system: SF-539 CNS
SK-MEL-2 melanoma = test system: SK-MEL-2 melanoma
SK-MEL-28 melanoma = test system: SK-MEL-28 melanoma
SK-MEL-5 melanoma = test system: SK-MEL-5 melanoma
SK-OV-3 ovarian = test system: SK-OV-3 ovarian
SN12C renal = test system: SN12C renal
SNB-19 CNS = test system: SNB-19 CNS
SNB-75 CNS = test system: SNB-75 CNS
SNB-78 CNS = test system: SNB-78 CNS
SW-620 colon = test system: SW-620 colon
TK-10 renal = test system: TK-10 renal
U251 CNS = test system: U251 CNS
UACC-257 melanoma = test system: UACC-257 melanoma
UACC-62 melanoma = test system: UACC-62 melanoma
UO-31 renal = test system: UO-31 renal

Measured: TGI

CC1c2[nH]c3ccccc3c2CCN1O (stereo not given)
> 100 µM: all assays above
